These results are taken from patent US20240279228A1, “NOVEL SALTS AND CRYSTALS” (INTRA-CELLULAR THERAPIES, INC., priority 2021, published 2024).

Where a name gives a salt, the structure may show the parent alone. Read-outs that look alike come from different tables or passages of the source. A value given as a limit tells only on which side of the number the result lay.

Series [1] in a line: Colour and chemical stability of the solid salt in air. In kind it is physicochemical. Particulars: for Colorization: tosylate salt product of process experiment.
For series [2] the following is noted: solid tosylate salt of WO2020/131895, on standing; cited from earlier work.
Series [3] is described as follows: Solubility of the salts in water. Particulars: salt. In kind it is physicochemical.
Series [4] can be described thus: Decomposition of salt crystals by NMR. In kind it is physicochemical. Particulars: crystals from salt screening. As to the method: Further experiments are performed using some of the successful acid/solvent/method conditions from Example 1, with variations in the solvent volume and/or material concentrations and/or changes to the molar ratio of Compound A free base to acid (1:1.2, 1:1.5 or 1:2). Some experiments are further repeated at a 500 mg scale for confirmation of the results, including additional analysis, including 1H-NMR, DSC/TGA, and/or FTIR.

Series [5] can be described thus: Solubility of Compound A free base in solvents. In kind it is physicochemical.
Series [6] in a line: Hygroscopicity of Compound A free base. In kind it is physicochemical.

For `O=C1CN2c3c(cccc3[C@@H]3CN(CCCOc4ccc(F)cc4)CC[C@@H]32)N1` [Compound 5-1], the Colorization entry in series [1] is recorded as “No”.
Consider `O=C1CN2c3c(cccc3[C@@H]3CN(CCCOc4ccc(F)cc4)CC[C@@H]32)N1` [tosylate salt], for which the Discoloration on standing entry in series [2] is “discolors on standing”. Further, the Solubility in water in series [3] is 1.2 to 1.7 mg/mL.
`O=C1CN2c3c(cccc3[C@@H]3CN(CCCOc4ccc(F)cc4)CC[C@@H]32)N1` [Example 3]: in series [1] (at room temperature), the “Colour change of the powder” value is given as “slowly turns purple”.
For `O=C1CN2c3c(cccc3[C@@H]3CN(CCCOc4ccc(F)cc4)CC[C@@H]32)N1` [Compound 5-2], in series [1], the Colorization entry was “No”.
On to `O=C1CN2c3c(cccc3[C@@H]3CN(CCCOc4ccc(F)cc4)CC[C@@H]32)N1` [oxalate salt], for which the Solubility in water in series [3] was in the range of 0.2 to 0.3 mg/mL.
As for `O=C1CN2c3c(cccc3[C@@H]3CN(CCCOc4ccc(F)cc4)CC[C@@H]32)N1` [Compound 3-2], in series [1], the Colorization entry is on record as “Yes”.
`O=C1CN2c3c(cccc3[C@@H]3CN(CCCOc4ccc(F)cc4)CC[C@@H]32)N1` [hydrochloride crystals]: the “Decomposition by NMR” value in series [4] was “show decomposition”.
As to `O=C1CN2c3c(cccc3[C@@H]3CN(CCCOc4ccc(F)cc4)CC[C@@H]32)N1` [Compound 5-3], the Colorization result in series [1] is given as “No”.
`O=C1CN2c3c(cccc3[C@@H]3CN(CCCOc4ccc(F)cc4)CC[C@@H]32)N1` [Compound 5-4]: the Colorization entry in series [1] is recorded as “No”.
For `O=C1CN2c3c(cccc3[C@@H]3CN(CCCOc4ccc(F)cc4)CC[C@@H]32)N1` [Compound 5-5], the Colorization result in series [1] is “Slight”.
One may read the solubility as the concentration that dissolves in the medium under given conditions. Turning to `O=C1CN2c3c(cccc3[C@@H]3CN(CCCOc4ccc(F)cc4)CC[C@@H]32)N1` [Compound A, (6bR,10aS)-8-(3-(4-fluorophenoxy)propyl)-6b,7,8,9,10,10a-hexahydro-1H-pyrido[3′,4′:4,5]pyrrolo[1,2,3-de]quinoxalin-2(3H)-one], the “Solubility (general)” value in series [5] (free base form) was “very poor solubility”. In addition, the “Solubility in DMSO” value in series [5] (free base, DMSO) is listed as “freely soluble”. Further, in series [5] (free base, anisole), the Solubility in anisole result is given as “sparingly soluble”. Further, in series [5] (free base, ethyl salicylate), the “Solubility in ethyl salicylate” value was “sparingly soluble”. For the same molecule, in series [5] (free base, most organic solvents and water), the “Solubility in most organic solvents and water” value is listed as “less than sparingly soluble”. For the same molecule, the solubility was < 11 mg/mL in series [5] (free base, water, read-out: Solubility in water); < 11 mg/mL in series [5] (organic solvent or mixture, free base, 2-butanol, read-out: Solubility in 2-butanol); < 11 mg/mL in series [5] (organic solvent or mixture, free base, cyclohexane, read-out: Solubility in cyclohexane); < 11 mg/mL in series [5] (organic solvent or mixture, free base, ethyl acetate, read-out: Solubility in ethyl acetate); < 11 mg/mL in series [5] (organic solvent or mixture, free base, heptane, read-out: Solubility in heptane); < 11 mg/mL in series [5] (organic solvent or mixture, free base, methanol, read-out: Solubility in methanol). In series [6], the Hygroscopicity entry is given as “slightly hygroscopic”.
